According to patent publication US20240082347A1, “TREATMENT OF CORONAVIRUS” (priority 2021, published 2024):
“Also recorded” adds a separate entry of the source.

Tests used:
[1] = system: sheared HAoEC; test: Transwell permeability assay (FITC-Dextran) after SARS-CoV-2 infection; format: cell-based, human; details: 0.0005 μM; SARS-CoV-2 infection 24 hours; FIG. 5A
[2] = system: SARS-CoV-2 binding to Human Aortic Endothelial Cells (HAoEC); format: cell-based
[3] = system: SARS-CoV-2 binding to human colorectal epithelial cells (Caco-2); format: cell-based
[4] = system: VE-Cadherin in endothelial cells; test: SDS-PAGE and Western blot of VE-Cadherin after ex vivo infection assay; format: cell-based, human; details: healthy, infected and treated cells; 0.0005 μM
Experimental: Following the ex vivo infection assay, endothelial cells were lysed in RIPA buffer and stored at −20° C. until use. Samples were separated on a 10% SDS-PAGE gel. Following this, proteins were transferred onto a nitrocellulose membrane and blocked for 1 hour using 5% skimmed milk. The membrane was probed using anti-VE Cadherin primary antibody (Clone: F-8, Cat. No: sc-9989, 1:200, SantaCruz) and anti-GAPDH primary antibody (6000-4-1 mouse mAB, 1:2000, ProteinTech), overnight at 4° C. Anti-mouse IgG secondary antibodies (sc525405, 1:5000, SantaCruz) were used the following day. Proteins were detected using chemiluminescence.

[5] = system: VE-Cadherin expression on sheared HAoEC; format: cell-based, human; details: 0.0005 μM
[6] = target: T1, Recombinant integrin αVβ3 (binding of SARS-CoV-2 spike protein) (Homo sapiens, UniProt P05106+P06756); test: Fluorescent-based protein interaction assay, spike protein and αVβ3; details: FIG. 8
T1 construct: purchased BioTechne 3050-AV-050
T1 sequence (P06756 31-992 limits assumed): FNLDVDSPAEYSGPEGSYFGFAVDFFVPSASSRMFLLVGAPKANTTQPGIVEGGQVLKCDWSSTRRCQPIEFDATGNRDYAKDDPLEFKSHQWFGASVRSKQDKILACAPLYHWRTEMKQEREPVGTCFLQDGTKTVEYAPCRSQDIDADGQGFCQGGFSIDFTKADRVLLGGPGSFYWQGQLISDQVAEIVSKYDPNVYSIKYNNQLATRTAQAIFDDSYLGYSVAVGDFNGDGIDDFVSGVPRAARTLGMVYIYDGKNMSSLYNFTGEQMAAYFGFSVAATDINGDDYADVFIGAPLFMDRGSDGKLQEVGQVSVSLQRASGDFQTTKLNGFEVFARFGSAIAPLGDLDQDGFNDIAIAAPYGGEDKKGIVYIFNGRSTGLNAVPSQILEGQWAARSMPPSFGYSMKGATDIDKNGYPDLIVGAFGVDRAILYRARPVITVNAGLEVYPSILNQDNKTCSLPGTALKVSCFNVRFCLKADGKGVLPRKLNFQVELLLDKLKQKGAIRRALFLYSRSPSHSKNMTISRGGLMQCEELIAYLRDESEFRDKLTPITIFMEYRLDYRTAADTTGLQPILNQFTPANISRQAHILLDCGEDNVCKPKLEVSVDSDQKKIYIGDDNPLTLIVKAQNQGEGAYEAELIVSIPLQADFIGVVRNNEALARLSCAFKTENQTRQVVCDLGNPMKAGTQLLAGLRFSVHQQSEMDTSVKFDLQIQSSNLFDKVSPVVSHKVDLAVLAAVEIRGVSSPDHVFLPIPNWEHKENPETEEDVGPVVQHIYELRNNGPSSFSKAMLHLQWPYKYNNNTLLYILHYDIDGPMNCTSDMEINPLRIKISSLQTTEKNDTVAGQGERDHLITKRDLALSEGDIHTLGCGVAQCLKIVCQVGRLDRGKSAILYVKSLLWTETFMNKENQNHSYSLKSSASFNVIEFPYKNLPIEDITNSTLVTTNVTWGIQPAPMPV
T1 sequence (P05106 27-718 limits assumed): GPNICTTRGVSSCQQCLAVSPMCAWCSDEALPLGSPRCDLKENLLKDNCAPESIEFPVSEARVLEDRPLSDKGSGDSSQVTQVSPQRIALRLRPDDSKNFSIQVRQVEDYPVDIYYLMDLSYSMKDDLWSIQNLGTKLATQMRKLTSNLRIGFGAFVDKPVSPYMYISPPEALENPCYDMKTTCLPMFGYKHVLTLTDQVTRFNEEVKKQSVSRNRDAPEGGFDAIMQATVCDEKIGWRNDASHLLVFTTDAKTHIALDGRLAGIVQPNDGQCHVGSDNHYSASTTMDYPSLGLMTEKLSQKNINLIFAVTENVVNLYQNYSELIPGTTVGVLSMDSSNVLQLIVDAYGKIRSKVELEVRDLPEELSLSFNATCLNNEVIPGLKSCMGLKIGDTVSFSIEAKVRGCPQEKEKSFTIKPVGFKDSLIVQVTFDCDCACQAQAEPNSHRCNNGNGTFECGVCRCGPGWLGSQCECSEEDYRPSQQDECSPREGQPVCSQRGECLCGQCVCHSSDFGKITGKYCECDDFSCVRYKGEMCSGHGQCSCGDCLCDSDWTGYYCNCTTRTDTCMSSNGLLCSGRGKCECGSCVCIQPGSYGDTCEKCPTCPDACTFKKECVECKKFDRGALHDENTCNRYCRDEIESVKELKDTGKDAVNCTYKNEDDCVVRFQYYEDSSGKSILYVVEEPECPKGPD

CC(C)[C@H]1C(=O)N[C@@H](CCCN=C(N)N)C(=O)NCC(=O)N[C@@H](CC(=O)O)C(=O)N[C@H](Cc2ccccc2)C(=O)N1C [Cilengitide, cyclo(-RGDf(NMe)V-)]
endothelial barrier permeability (FITC-Dextran, 40 kDa) [1]: limited the occurrence of barrier permeability; also recorded: restored after treating cells with Cilengitide | SARS-CoV-2 binding to endothelial cells, dose response [2]: in a dose-dependent manner; also recorded: significantly prevents both attachment to the host and disruption of barrier integrity; also recorded: Statistical significance was found between the no drug control and each Cilengitide treated group | virus (SARS-CoV-2) attachment to human vascular endothelial cells [2]: dose dependently inhibits virus (SARS-CoV-2) attachment to human vascular endothelial cells | SARS-CoV-2 binding to human colorectal epithelial cells [3]: effectively reduces SARS-CoV-2 binding to human colorectal epithelial cells | Total VE-Cadherin [4]: Total VE-Cadherin remains consistent | VE-Cadherin surface expression (mean fluorescence), marker of barrier integrity [5]: prevented VE-cadherin reduction during infection; also recorded: returning VE-cadherin levels back to uninfected levels; also recorded: re-established the barrier integrity; also recorded: barrier permeability was restored back to uninfected levels | internalisation of VE-Cadherin following SARS-CoV-2 infection [5]: internalisation of VE-Cadherin is prevented

CNc1cccc(CCOc2ccc3c(c2)CN(CC(F)(F)F)C(=O)[C@H](CC(=O)O)C3)n1 [SB-273005]
viral (SARS-CoV-2) attachment to human vascular endothelial cells [2]: failed to inhibit viral (SARS-CoV-2) attachment to human vascular endothelial cells; also recorded: unsuccessful at reducing SARS-CoV-2 binding to human endothelial cells

COc1ccc(S(=O)(=O)N[C@@H](CNc2nc(C)nc(N3CCC(c4ccc5c(n4)NCCC5)CC3)c2C)C(=O)O)cc1 [GLPG0187]
viral (SARS-CoV-2) attachment to human vascular endothelial cells [2]: failed to inhibit viral (SARS-CoV-2) attachment to human vascular endothelial cells | recombinant spike protein binding to integrin αVβ3, comparison of GLPG0187 with Cilengitide [6]: Cilengitide is significantly more effective
